Test results: patent US6113907A, “Pharmaceutical grade St. John's Wort” (priority 1997, dated 2000)
Like-named read-outs stand apart in the source and are kept apart here.

Legend:
[1] = test system: equine infectious anemia virus; conditions: cited from earlier work
NMDA = assay: Receptor Binding by Hypericin, NMDA
Description: Through an NIMH screening contract (NovaScreen™, Baltimore, Md.) a commercially available crude extract from the fresh flowers and buds of Hypericum perforatum [1:1.5; hydro-alcohol (40:60) made from flowering tops; Herb Pharm] containing ~0.1% hypericin was dried under vacuum, dissolved in 4% DMSO, and diluted to an initial concentration of 50 mg/ml for in vitro screening in a battery of 39 receptor assays and two enzyme systems (Table 5, below).

muscarinic M1 receptor = target: T1, muscarinic M1 receptor (Bos taurus, UniProt F1N5C5); assay: muscarinic M1 binding, [3H]-Pirenzepine, bovine striatal membranes; conditions: read-out: MuscM1 Binding % inhibition (PharmaPrint range)
T1 construct: Using receptors derived from bovine striatal membranes; from tissue; host or cells: bovine striatal membranes
T1 sequence (F1N5C5 1-460): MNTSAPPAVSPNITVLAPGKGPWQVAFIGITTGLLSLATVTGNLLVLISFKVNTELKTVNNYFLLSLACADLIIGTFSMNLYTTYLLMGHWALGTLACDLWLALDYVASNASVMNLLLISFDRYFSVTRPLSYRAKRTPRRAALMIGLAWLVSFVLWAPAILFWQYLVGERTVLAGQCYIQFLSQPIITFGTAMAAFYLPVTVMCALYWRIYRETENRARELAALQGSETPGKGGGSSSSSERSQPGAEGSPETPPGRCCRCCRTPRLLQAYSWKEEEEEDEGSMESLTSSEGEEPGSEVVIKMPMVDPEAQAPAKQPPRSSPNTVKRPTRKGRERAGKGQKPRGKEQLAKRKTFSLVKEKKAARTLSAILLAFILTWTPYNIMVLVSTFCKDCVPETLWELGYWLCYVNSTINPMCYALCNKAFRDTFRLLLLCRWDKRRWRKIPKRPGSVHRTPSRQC

stability = type: physicochemical; conditions: our data
Excerpt: Some botanicals, such as St. John's Wort, are both temperature and light sensitive. For this type of botanical the material should be dry packed with a refrigerant or shipped under refrigeration and protected from light and air. […] Stability (in absence of air) was increased to six months in a preparation extracted with ethanol.
Phloroglucinola include hyperforin (prenylated derivative of phloroglucinol), adhyperforin (similar to the bitter principle of hops, adhumulone).

murine cytomegalovirus = conditions: cited from earlier work
protein kinase C = conditions: cited from earlier work
MAO = conditions: cited from earlier work
MAOA = target: T2, MAOA (Rattus norvegicus, UniProt P21396); assay: NIMH/NovaScreen screen, MAOA; type: biochemical
T2 sequence (P21396 1-526): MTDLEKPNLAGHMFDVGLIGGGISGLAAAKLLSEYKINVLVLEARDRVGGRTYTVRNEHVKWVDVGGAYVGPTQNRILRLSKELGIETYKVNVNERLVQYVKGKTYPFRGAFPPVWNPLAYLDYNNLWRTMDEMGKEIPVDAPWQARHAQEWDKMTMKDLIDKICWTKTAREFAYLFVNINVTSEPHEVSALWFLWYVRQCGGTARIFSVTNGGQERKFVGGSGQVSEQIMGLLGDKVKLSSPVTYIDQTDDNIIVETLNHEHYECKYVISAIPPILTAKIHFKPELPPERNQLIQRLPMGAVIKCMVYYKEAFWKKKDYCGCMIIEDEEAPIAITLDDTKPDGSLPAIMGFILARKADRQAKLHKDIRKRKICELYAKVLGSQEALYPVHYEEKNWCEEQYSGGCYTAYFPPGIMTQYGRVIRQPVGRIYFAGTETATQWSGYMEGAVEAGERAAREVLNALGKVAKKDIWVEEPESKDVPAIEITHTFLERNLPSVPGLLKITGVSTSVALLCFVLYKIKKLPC

[2] = test system: benzodiazepine receptor (BDZ); assay: benzodiazepine receptor (BDZ), [3H] PK11195, rat kidney membranes; type: binding; conditions: 10^-4; 60 min, 100 µM
Description: Fourteen additional bioassays were preformed on either extracts, fractions or reference compounds for this botanical. To measure inhibition of [^3 H] PK11195 to the benzodiazepine receptor (BDZ) a partially purified receptor preparation was made from rat kidney membranes. The final radioactive ligand concentration was 1 nM and non-specific binding was measured using 200 nM cold PK11195. The substances, receptor and ligand were reacted in 50 mM Tris-HCL (pH 7.7) at 0-4° C. for 60 minutes. The reaction was terminated by rapid filtration of the samples through glass fiber filters. […] The inhibition of [^3 H] pinrenzepine to the muscarinic M1 receptor (M1) by the substances was measured using a partially purified receptor from bovine striatal membranes. The final hot ligand concentration was 1 nM and non-specific binding was determined in the presence of 100 nM atropine. […] The reactions were terminated by rapid vacuum filtration of the reaction mixture through glass fiber filters. […] To assay for biological activity for the muscarinic receptor for the central nervous system, receptor was partially purified from rat cortical membranes. […] Non-specific binding was determined in the presence of 100 nM atropine. […] Non-specific binding was determined using 1 mM NMDA. […] Non-specific binding was determined using 100 μM AMPA.

glioma cells = conditions: tissue culture; cited from earlier work

## Cc1cc(O)c2c(=O)c3c(O)cc(O)c4c5c(O)cc(O)c6c(=O)c7c(O)cc(C)c8c1c2c(c34)c(c78)c65 [Hypericin, hypericin]
[1]
  activity against equine infectious anemia virus: Activity has also been reported
NMDA; 1 μM
  % Inhibition NMDA: 48.5%
NMDA; 10 μM
  % Inhibition NMDA: 81.7%
NMDA; 100 μM
  % Inhibition NMDA: -20.7%
NMDA; .001 μM
  % Inhibition NMDA: 10.5%
NMDA; .01 μM
  % Inhibition NMDA: 24.5%
NMDA; .1 μM
  % Inhibition NMDA: -0.3%
NMDA; read-out: Ki NMDA
  Ki: ~1000 nM
NMDA; read-out: ~Ki NMDA (Table 7)
  Ki: ~1100 nM
Muscarinic M1 receptor
  inhibition at 100 µM: 80 ± 20%
stability
  stability in solution: unstable in solution
Murine cytomegalovirus
  activity against murine cytomegalovirus: Activity has also been reported
Protein kinase C
  protein kinase C IC50: 1.7 µg/mL
MAO; Suzuki et al., 80% purity
  concentration inhibiting MAO: 50 µg/mL
MAO
  confirmation of MAO inhibition: failed to confirm this effect
MAOA; 10 μM
  inhibition at 10 µM: 27%
MAOA; 100 μM
  inhibition at 100 µM: 20.8%
MAOA; up to 0.1 mM
  MAOA inhibition: lacked significant MAOA or MAO-^B inhibition
[2]
  BDZ: 33%
Glioma cells
  growth of glioma cells: inhibit the growth of glioma cells
